pIC50: −log10 of the molar value.
Key:
Assay in all cases: cells
Conditions in all cases: Homo sapiens
[1] = test system: SHP77; type: functional, cell-based, SHP-77;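 also: growth inhibition of human SHP-77 cells measured by a cell viability assay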
Description: SANGER: Inhibition of human SHP-77 cell growth in a cell viability assay.

[2] = test system: HL-60; type: functional, cell-based;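 also: growth inhibition of human HL-60 cells, read out with a cell viability assay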
Description: SANGER: Inhibition of human HL-60 cell growth in a cell viability assay.

[3] = test system: LOX IMVI; type: functional, cell-based
Description: SANGER: Inhibition of human LOXIMVI cell growth in a cell viability assay.

[4] = test system: KLE; type: functional, cell-based;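 also: growth inhibition of human KLE cells, read out with a cell viability assay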
Description: SANGER: Inhibition of human KLE cell growth in a cell viability assay.

[5] = test system: C8166; type: functional, cell-based;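 also: growth inhibition of human C8166 cells measured by a cell viability assay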
Description: SANGER: Inhibition of human C8166 cell growth in a cell viability assay.

[6] = test system: KG-1; type: functional, cell-based;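 also: growth inhibition of KG-1 cells, read out by a cell viability assay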
Description: SANGER: Inhibition of human KG-1 cell growth in a cell viability assay.

[7] = test system: KNS-42; type: functional, cell-based;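 also: growth inhibition of KNS-42 cells, read out with a cell viability assay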
Description: SANGER: Inhibition of human KNS-42 cell growth in a cell viability assay.

[8] = test system: HDLM-2; type: functional, cell-based;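 also: cell viability assay measuring suppression of HDLM-2 proliferation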
Description: SANGER: Inhibition of human HDLM-2 cell growth in a cell viability assay.

[9] = test system: LAN-6; type: functional, cell-based;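 also: growth inhibition of LAN-6 cells, determined with a cell viability assay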
Description: SANGER: Inhibition of human LAN-6 cell growth in a cell viability assay.

[10] = test system: SNU-C2B; type: functional, cell-based;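 also: cell viability readout used to measure compound-driven suppression of SNU-C2B cell proliferation, IC50 marking half-maximal growth inhibition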
Description: SANGER: Inhibition of human SNU-C2B cell growth in a cell viability assay.

[11] = test system: RPMI-8226; type: functional, cell-based
Description: SANGER: Inhibition of human RPMI-8226 cell growth in a cell viability assay.

[12] = test system: TK-10; type: functional, cell-based;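 also: growth inhibition of TK-10 cells, read out in a cell viability assay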
Description: SANGER: Inhibition of human TK10 cell growth in a cell viability assay.

[13] = test system: LB1047-RCC; type: functional, cell-based;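 also: inhibition of cell growth, determined with a cell viability assay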
Description: SANGER: Inhibition of human LB1047-RCC cell growth in a cell viability assay.

[14] = test system: Ramos-2G6-4C10; type: functional, cell-based;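 also: growth inhibition of the cell line, measured by a cell viability read-out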
Description: SANGER: Inhibition of human Ramos-2G6-4C10 cell growth in a cell viability assay.

[15] = test system: NCI-H1770; type: functional, cell-based;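 also: growth inhibition of NCI-H1770 cells determined with a viability readout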
Description: SANGER: Inhibition of human NCI-H1770 cell growth in a cell viability assay.

[16] = test system: SW 954; type: functional, cell-based;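 also: growth inhibition of SW954 human cancer cells, read out as cell viability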
Description: SANGER: Inhibition of human SW954 cell growth in a cell viability assay.

[17] = test system: LS-513; type: functional, cell-based
Description: SANGER: Inhibition of human LS-513 cell growth in a cell viability assay.

[18] = test system: MN-60; type: functional, cell-based;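 also: growth inhibition of the MN-60 cell line, determined with a cell viability assay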
Description: SANGER: Inhibition of human MN-60 cell growth in a cell viability assay.

[19] = test system: EOL1; type: functional, cell-based;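 also: growth inhibition of EoL-1 cells, read out by a cell viability assay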
Description: SANGER: Inhibition of human EoL-1-cell cell growth in a cell viability assay.

[20] = test system: MOLT-16; type: functional, cell-based;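 also: growth inhibition of human MOLT-16 cells, read out with a cell viability assay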
Description: SANGER: Inhibition of human MOLT-16 cell growth in a cell viability assay.

[21] = test system: KS-1; type: functional, cell-based;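 also: growth inhibition of KS-1 cells, read out with a cell viability assay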
Description: SANGER: Inhibition of human KS-1 cell growth in a cell viability assay.

[22] = test system: MZ1-PC; type: functional, cell-based;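 also: cell viability assay measuring growth inhibition of human MZ1-PC cells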
Description: SANGER: Inhibition of human MZ1-PC cell growth in a cell viability assay.

[23] = test system: NOMO-1; type: functional, cell-based;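 also: growth inhibition of human NOMO-1 cells measured by a cell viability assay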
Description: SANGER: Inhibition of human NOMO-1 cell growth in a cell viability assay.

[24] = test system: J-RT3-T3-5; type: functional, cell-based;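 also: cell viability assay measuring growth inhibition of human J-RT3-T3-5 cells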
Description: SANGER: Inhibition of human J-RT3-T3-5 cell growth in a cell viability assay.

[25] = test system: JAR; type: functional, cell-based;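 also: growth inhibition of human JAR cells determined with a cell viability assay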
Description: SANGER: Inhibition of human JAR cell growth in a cell viability assay.

[26] = test system: Calu-6; type: functional, cell-based;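 also: growth of human Calu-6 cells, read out by a cell viability assay, IC50 marking inhibition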
Description: SANGER: Inhibition of human Calu-6 cell growth in a cell viability assay.

[27] = test system: NCI-H69; type: functional, cell-based;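 also: growth inhibition of the cell line, read out with a cell viability assay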
Description: SANGER: Inhibition of human NCI-H69 cell growth in a cell viability assay.

[28] = test system: NCI-H1155; type: functional, cell-based;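 also: cell growth inhibition measured by a viability assay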
Description: SANGER: Inhibition of human NCI-H1155 cell growth in a cell viability assay.

[29] = test system: A704; type: functional, cell-based;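 also: growth inhibition of human A704 cells, read out with a cell viability assay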
Description: SANGER: Inhibition of human A704 cell growth in a cell viability assay.

[30] = test system: OMC-1; type: functional, cell-based;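 also: growth inhibition of the OMC-1 cell line, measured by a cell viability assay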
Description: SANGER: Inhibition of human OMC-1 cell growth in a cell viability assay.

[31] = test system: GAK; type: functional, cell-based;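 also: cell growth inhibition read out by a cell viability assay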
Description: SANGER: Inhibition of human GAK cell growth in a cell viability assay.

[32] = test system: LB831-BLC; type: functional, cell-based;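 also: growth inhibition of LB831-BLC cells, read out with a cell viability assay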
Description: SANGER: Inhibition of human LB831-BLC cell growth in a cell viability assay.

[33] = test system: GOTO; type: functional, cell-based;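 also: growth inhibition of GOTO cells, read out by a cell viability assay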
Description: SANGER: Inhibition of human GOTO cell growth in a cell viability assay.

[34] = test system: SCH; type: functional, cell-based;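 also: growth inhibition of human SCH cells, read out in a cell viability assay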
Description: SANGER: Inhibition of human SCH cell growth in a cell viability assay.

[35] = test system: RXF 393; type: functional, cell-based;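 also: growth inhibition of human RXF 393 cells, read out with a cell viability assay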
Description: SANGER: Inhibition of human RXF393 cell growth in a cell viability assay.

[36] = test system: JVM-2; type: functional, cell-based;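 also: growth inhibition of JVM-2 cells determined by a cell viability assay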
Description: SANGER: Inhibition of human JVM-2 cell growth in a cell viability assay.

[37] = test system: HCC2218; type: functional, cell-based;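 also: cell viability assay read-out, with IC50 given as the concentration that inhibits growth of the cell line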
Description: SANGER: Inhibition of human HCC2218 cell growth in a cell viability assay.

[38] = test system: ES8; type: functional, cell-based;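 also: growth inhibition of human ES8 cells, read out with a cell viability assay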
Description: SANGER: Inhibition of human ES8 cell growth in a cell viability assay.

[39] = test system: 697; type: functional, cell-based
Description: SANGER: Inhibition of human 697 cell growth in a cell viability assay.

[40] = test system: GB-1; type: functional, cell-based;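 also: growth of GB-1 cells judged by a viability assay, IC50 marks the concentration inhibiting growth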
Description: SANGER: Inhibition of human GB-1 cell growth in a cell viability assay.

[41] = test system: SK-PN-DW; type: functional, cell-based;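 also: growth inhibition measured with a viability assay on these cells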
Description: SANGER: Inhibition of human SK-PN-DW cell growth in a cell viability assay.

[42] = test system: SK-MEL-2; type: functional, cell-based;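 also: growth inhibition of human SK-MEL-2 cells measured with a cell viability assay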
Description: SANGER: Inhibition of human SK-MEL-2 cell growth in a cell viability assay.

[43] = test system: NTERA-2-cl-D1; type: functional, cell-based;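 also: inhibition of cell growth, measured with a cell viability assay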
Description: SANGER: Inhibition of human NTERA-S-cl-D1 cell growth in a cell viability assay.

[44] = test system: SBC-1; type: functional, cell-based;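 also: cell viability assay measuring growth inhibition of the SBC-1 cell line, IC50 being the concentration that halves growth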
Description: SANGER: Inhibition of human SBC-1 cell growth in a cell viability assay.

[45] = test system: OCUB-M; type: functional, cell-based;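 also: growth inhibition of the cancer cell line, read out through a cell viability assay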
Description: SANGER: Inhibition of human OCUB-M cell growth in a cell viability assay.

[46] = test system: ETK-1; type: functional, cell-based;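 also: growth inhibition of human ETK-1 cells, read out with a cell viability assay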
Description: SANGER: Inhibition of human ETK-1 cell growth in a cell viability assay.

[47] = test system: SNU1; type: functional, cell-based;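 also: growth inhibition of human NCI-SNU-1 cells, measured with a cell viability assay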
Description: SANGER: Inhibition of human NCI-SNU-1 cell growth in a cell viability assay.

[48] = test system: KU812 cell line; type: functional, cell-based;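 also: growth inhibition of KU812 cells, read out with a cell viability assay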
Description: SANGER: Inhibition of human KU812 cell growth in a cell viability assay.

[49] = test system: IST-SL1; type: functional, cell-based;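 also: growth inhibition of human IST-SL1 cells, read out with a cell viability assay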
Description: SANGER: Inhibition of human IST-SL1 cell growth in a cell viability assay.

[50] = test system: ES5; type: functional, cell-based;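 also: growth inhibition of human ES5 cells, read out by a cell viability assay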
Description: SANGER: Inhibition of human ES5 cell growth in a cell viability assay.

[51] = test system: KARPAS-299; type: functional, cell-based
Description: SANGER: Inhibition of human KARPAS-299 cell growth in a cell viability assay.

[52] = test system: GR-ST; type: functional, cell-based
Description: SANGER: Inhibition of human GR-ST cell growth in a cell viability assay.

[53] = test system: GI-1; type: functional, cell-based;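 also: growth inhibition of human GI-1 cells, measured with a cell viability readout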
Description: SANGER: Inhibition of human GI-1 cell growth in a cell viability assay.

[54] = test system: LU-134-A; type: functional, cell-based
Description: SANGER: Inhibition of human LU-134-A cell growth in a cell viability assay.

[55] = test system: SH-4; type: functional, cell-based;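 also: growth inhibition of SH-4 cells, read out with a cell viability assay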
Description: SANGER: Inhibition of human SH-4 cell growth in a cell viability assay.

[56] = test system: MC116; type: functional, cell-based
Description: SANGER: Inhibition of human MC116 cell growth in a cell viability assay.

[57] = test system: MHH-PREB-1; type: functional, cell-based
Description: SANGER: Inhibition of human MHH-PREB-1 cell growth in a cell viability assay.

[58] = test system: no-11; type: functional, cell-based
Description: SANGER: Inhibition of human no-11 cell growth in a cell viability assay.

[59] = test system: ES1; type: functional, cell-based
Description: SANGER: Inhibition of human ES1 cell growth in a cell viability assay.

[60] = test system: KY821; type: functional, cell-based
Description: SANGER: Inhibition of human KY821 cell growth in a cell viability assay.

[61] = test system: NCI-H1355; type: functional, cell-based
Description: SANGER: Inhibition of human NCI-H1355 cell growth in a cell viability assay.

[62] = test system: NCI-H1838; type: functional, cell-based
Description: SANGER: Inhibition of human NCI-H1838 cell growth in a cell viability assay.

[63] = test system: NCI-H1648; type: functional, cell-based
Description: SANGER: Inhibition of human NCI-H1648 cell growth in a cell viability assay.

Question: With `CC(=O)c1c(C)c2cnc(Nc3ccc(N4CCNCC4)cn3)nc2n(C2CCCC2)c1=O` [PALBOCICLIB] as the compound, how does the pIC50 [1] read?
Answer: < 5.40

Question: And the pIC50 [2]?
Answer: 6.47

Question: What about the pIC50 [3] of the same compound?
Answer: 5.72

Question: And the pIC50 [4]?
Answer: < 5.40

Question: And the pIC50 [5]?
Answer: < 5.40

Question: What about the pIC50 [6] of the same compound?
Answer: 5.90

Question: What about the pIC50 [7] of the same compound?
Answer: < 5.40

Question: And the pIC50 [8]?
Answer: < 5.40

Question: What about the pIC50 [9] of the same compound?
Answer: < 5.40

Question: And the pIC50 [10]?
Answer: < 5.40

Question: And the pIC50 [11]?
Answer: 6.28

Question: And the pIC50 [12]?
Answer: 5.49

Question: What about the pIC50 [13] of the same compound?
Answer: 6.03

Question: And the pIC50 [14]?
Answer: 5.56

Question: What about the pIC50 [15] of the same compound?
Answer: 6.03

Question: What about the pIC50 [16] of the same compound?
Answer: 6.03

Question: What about the pIC50 [17] of the same compound?
Answer: < 5.40

Question: And the pIC50 [18]?
Answer: 5.64

Question: What about the pIC50 [19] of the same compound?
Answer: 6.73

Question: And the pIC50 [20]?
Answer: 6.59

Question: What about the pIC50 [21] of the same compound?
Answer: < 5.40

Question: And the pIC50 [22]?
Answer: < 5.40

Question: And the pIC50 [23]?
Answer: < 5.40

Question: And the pIC50 [24]?
Answer: 6.03

Question: What about the pIC50 [25] of the same compound?
Answer: < 5.40

Question: What about the pIC50 [26] of the same compound?
Answer: < 5.40

Question: And the pIC50 [27]?
Answer: < 5.40

Question: What about the pIC50 [28] of the same compound?
Answer: < 5.40

Question: What about the pIC50 [29] of the same compound?
Answer: < 5.40

Question: And the pIC50 [30]?
Answer: < 5.40

Question: What about the pIC50 [31] of the same compound?
Answer: < 5.40

Question: What about the pIC50 [32] of the same compound?
Answer: < 5.40

Question: And the pIC50 [33]?
Answer: < 5.40

Question: What about the pIC50 [34] of the same compound?
Answer: < 5.40

Question: What about the pIC50 [35] of the same compound?
Answer: 6.09

Question: And the pIC50 [36]?
Answer: < 5.40

Question: What about the pIC50 [37] of the same compound?
Answer: 5.63

Question: And the pIC50 [38]?
Answer: 6.22

Question: What about the pIC50 [39] of the same compound?
Answer: 6.83

Question: And the pIC50 [40]?
Answer: < 5.40

Question: And the pIC50 [41]?
Answer: < 5.40

Question: And the pIC50 [42]?
Answer: < 5.40

Question: And the pIC50 [43]?
Answer: < 5.40

Question: What about the pIC50 [44] of the same compound?
Answer: < 5.40

Question: What about the pIC50 [45] of the same compound?
Answer: < 5.40

Question: What about the pIC50 [46] of the same compound?
Answer: 5.52

Question: What about the pIC50 [47] of the same compound?
Answer: 5.93

Question: What about the pIC50 [48] of the same compound?
Answer: 5.72

Question: And the pIC50 [49]?
Answer: < 5.40

Question: What about the pIC50 [50] of the same compound?
Answer: 6.12

Question: What about the pIC50 [51] of the same compound?
Answer: < 5.40

Question: And the pIC50 [52]?
Answer: < 5.40

Question: And the pIC50 [53]?
Answer: < 5.40

Question: And the pIC50 [54]?
Answer: < 5.40

Question: What about the pIC50 [55] of the same compound?
Answer: < 5.40

Question: And the pIC50 [56]?
Answer: < 5.40

Question: And the pIC50 [57]?
Answer: 6.20

Question: And the pIC50 [58]?
Answer: < 5.40

Question: And the pIC50 [59]?
Answer: 6.59

Question: And the pIC50 [60]?
Answer: 6.50

Question: What about the pIC50 [61] of the same compound?
Answer: 5.59

Question: Which results are given for `CCCS(=O)(=O)Nc1ccc(F)c(C(=O)c2c[nH]c3ncc(Cl)cc23)c1F` [PLX-4720]?
Answer: pIC50 [1]: < 5.00; pIC50 [2]: < 5.00; pIC50 [3]: < 5.00; pIC50 [4]: < 5.00; pIC50 [5]: < 5.00; pIC50 [6]: 5.32; pIC50 [62]: < 5.00; pIC50 [7]: < 5.00; pIC50 [8]: < 5.00; pIC50 [9]: < 5.00; pIC50 [10]: < 5.00; pIC50 [11]: < 5.00; pIC50 [12]: < 5.00; pIC50 [13]: < 5.00; pIC50 [14]: < 5.00; pIC50 [15]: < 5.00; pIC50 [16]: < 5.00; pIC50 [63]: < 5.00; pIC50 [17]: < 5.00; pIC50 [18]: < 5.00; pIC50 [19]: 6.85; pIC50 [20]: < 5.00; pIC50 [21]: < 5.00; pIC50 [22]: < 5.00; pIC50 [23]: < 5.00; pIC50 [24]: < 5.00; pIC50 [25]: < 5.00; pIC50 [26]: < 5.00; pIC50 [27]: < 5.00; pIC50 [28]: < 5.00; pIC50 [29]: < 5.00; pIC50 [30]: < 5.00; pIC50 [31]: < 5.00; pIC50 [32]: < 5.00; pIC50 [33]: < 5.00; pIC50 [34]: < 5.00; pIC50 [35]: < 5.00; pIC50 [36]: < 5.00; pIC50 [37]: 6.06; pIC50 [38]: < 5.00; pIC50 [39]: 5.45; pIC50 [40]: < 5.00; pIC50 [41]: < 5.00; pIC50 [42]: < 5.00; pIC50 [43]: < 5.00; pIC50 [44]: < 5.00; pIC50 [45]: < 5.00; pIC50 [46]: < 5.00; pIC50 [47]: < 5.00; pIC50 [48]: < 5.00; pIC50 [49]: < 5.00; pIC50 [50]: 5.21; pIC50 [51]: < 5.00; pIC50 [52]: < 5.00; pIC50 [53]: < 5.00; pIC50 [54]: < 5.00; pIC50 [55]: 6.38; pIC50 [56]: < 5.00; pIC50 [57]: < 5.00; pIC50 [58]: < 5.00; pIC50 [59]: < 5.00; pIC50 [60]: 5.04; pIC50 [61]: < 5.00
